Laboratory results: ChEMBL document CHEMBL5724562, “Toxicity screen in isolated B cell assay results for EUbOPEN Chemogenomics Library” (2024)
Positions of bridges follow the written chain, without caps; N, C: chain ends. Non-standard residues stand in square brackets, D forms with d. Residues, ends and D or L forms follow the SMILES beside them. Arg(Me) = CNC(=N)NCCC[C@H](N)C(=O)O; d4Pal = N[C@H](Cc1ccncc1)C(=O)O; Orn = NCCC[C@H](N)C(=O)O; azaGly = NNC(=O)O; Mpa = O=C(O)CCS

tested on: B cell; assay: Cytotoxicity screening of chemical probes in isolated B cell assay. Data is normalized to DMSO control, the cell viability average of replicates are reported. Reduction of ATP level more than 20% indicate compromised cell health status.; conditions: human, 0.1 µM

In order of rising “Cell Viability” value:
1. Nc1c(C(=O)NCc2ccc(C(=O)NCCCC3CCCCC3)cc2)cnn1-c1ccccc1 [SR-318]  97.9561%
2. COc1ccc2cc(OCC3(C(=O)O)CN(C(=O)c4ccc(F)cc4)C3)ccc2c1 [PF-04418948]  98.5812%
3. Cc1c[nH]c2nccc(Oc3c(F)cc(Nc4cc(Cl)nc(N)n4)cc3F)c12 [BAY-549]  99.4175%
4. Cc1cc(C)c(-n2ccn3nc(-c4cccnc4)cc23)cc1NC(=O)c1cc(C#N)cc(S(F)(F)(F)(F)F)c1 [BAY-826]  99.8561%

same assay, conditions: human, 1 µM

In order of rising “Cell Viability” value:
1. C[C@H](c1ccnc(Nc2nc3ccc(-c4cc(N(C)C)ncn4)cc3[nH]2)c1)N1CCN(C(=O)CC(F)(F)F)CC1 [BAY-985]  78.1838%
2. C=CC(=O)N1CCC[C@@H](n2nc(-c3ccc(Oc4ccccc4)cc3)c3c(N)ncnc32)C1 [IBRUTINIB]  86.9807%
3. CCC(=O)Nc1cc(Nc2cc(NC3CC3)n3ncc(C#N)c3n2)ccc1C  88.1167%
4. CN(C)C(=O)/C(C#N)=C/c1ccc(-c2nc3cnc4[nH]ccc4c3n2C2CCCCC2)o1  89.3026%
5. CO[C@@H](C)c1c(Nc2ccc([C@H](N(C)C(=O)C3CCS(=O)(=O)CC3)C(F)(F)F)cc2)cnc2cc(Cl)nn12 [NVS-MALT1]  90.4509%
6. C[C@@H]1CN(Cc2ccc(F)cc2)CCN1C(=O)COc1ccc(Cl)cc1NC(N)=O [BX 471 FREE BASE]  91.1693%
7. Cc1cc2c(cc1N1C(=O)c3cccc4c(CCCO)ccc(c34)C1=O)n(C)c(=O)n2C  92.6096%
8. CCCc1cc(C)[nH]c(=O)c1CNC(=O)c1cc(-c2ccnc(N3CCN(C)CC3)c2)cc2c1cnn2C(C)C  92.8371%
9. Cl.Cl.c1ccc([C@@H]2C[C@H]2NC2CCNCC2)cc1  93.3816%
10. COc1ccccc1S(=O)(=O)Nc1ccc2c(c1)CN(C)C(=O)N2  94.2739%
11. CC(C)Cc1ccc([C@@H](C)C(=O)NS(C)(=O)=O)cc1 [REPARIXIN]  94.4279%
12. CN1C[C@H](Nc2cnn(C)c(=O)c2Br)C[C@H](c2ccccc2)C1  94.5817%
13. O=C1CCc2cc(Nc3cc(OC4CCOCC4)c([N+](=O)[O-])cc3Cl)ccc2N1  94.8245%
14. CCN(CC)S(=O)(=O)Nc1cccc(-c2ccc3c(NC(=O)C4CC4)n[nH]c3c2)c1  95.3727%
15. COCc1nc2cnc3cc(-c4c(C)noc4C)c(OC[C@H]4CCNC4)cc3c2n1[C@H](C)c1ccccc1 [GSK778]  95.4048%
16. Cc1cc(C)cc([C@@H]2c3cc(C)ccc3NC(=O)CN2C(=O)c2ccc(Br)s2)c1  95.4438%
17. Cc1nnc2c3ccccc3c(N[C@@H](C)[C@H](c3ccccc3)N(C)C)nn12  95.5642%
18. O=C(N1CCS(=O)(=O)CC1)N1C[C@H](c2ccc(OC(F)(F)F)cc2)C[C@H](c2nc(C3CC3)no2)C1 [BAY-386]  95.9614%
19. Cc1c(Nc2ccc(S(=O)(=O)N3CCN(C)CC3)cc2F)nc2ccc(-c3cnn(C4CC4)c3)cn2c1=O  96.0793%
20. CC(=O)Nc1c(C(C)=O)c(=O)n(C)c2nc(-c3ccc(Cl)cc3Cl)c(-c3ccc(Cl)cc3)cc12 [NAPHTHYRIDINONE]  96.2894%
21. O=C(O)CNC(=O)c1c(O)c2ccccc2n(Cc2ccccc2)c1=O  96.2966%
22. C[C@@H]1CN(c2cc(-c3n[nH]c4ccc(OC5(C)CC5)cc34)ncn2)C[C@H](C)O1 [MLi-2]  96.3526%
23. CN1CCN(c2cnc3c(C4CCN(C(=O)c5ccc(OC(F)(F)F)cc5N)CC4)ncnc3c2)CC1 [BAY-885]  96.4414%
24. O=C1c2ccc(Nc3ccc(F)cc3F)cc2CCc2ccc(OC[C@H](O)CO)cc21 [Skepinone-L]  96.8594%
25. Cc1cn(-c2cc(NC(=O)c3ccc4c(c3)CN(c3cncnc3)C[C@@H]4C)cc(C(F)(F)F)c2)cn1  96.9111%
26. COc1cc(OC)cc(-c2noc(N3CCN(C)C4(CCN(c5ccnc(C)c5)CC4)C3)n2)c1  97.1072%
27. CCc1ccccc1C(=O)Nc1n[nH]c2c(C)c(F)c(C3C(C#N)=C(C)N(C)C(C)=C3C#N)cc12 [BAY-3827]  97.1659%
28. O=C(O)c1n[nH]c2c1C[C@H]1C[C@@H]21  98.0706%
29. COc1cc(-c2cn([C@H]3CCc4c(F)cccc4N(CC(F)(F)F)C3=O)nn2)ccc1-n1cnc(C)c1  98.1038%
30. CN(C)CCCOc1ccc(-c2cc(NCCCn3cccn3)nc(S(C)(=O)=O)n2)cc1  98.5143%
31. O=C(Nc1cnc(Oc2ccc(F)cc2)nc1)N1CCc2ncccc2[C@@H]1c1ccc(F)cc1 [BAY-899]  98.9586%
32. CCC(=O)N1CCOc2c(cc(-c3ccc(OC)c(OC)c3)cc2OCC2CCCN(C)C2)C1 (stereo not drawn)  98.9735%
33. C[C@H](c1ccc(F)cc1)N(Cc1cccc(C(=O)O)c1)C(=O)c1cnc2ccccc2c1 [PF-05105679]  99.1446%
34. CCNC(=O)c1cc2c(N3CCOCC3C)ccnc2[nH]1 (stereo not drawn)  99.1799%
35. Cn1cc(CCn2cnc(-c3cnn(C)c3)c2-c2ccc(C#N)cc2)cn1  99.8514%
36. O=C(NC[C@@H]1[C@H]2CN(C(=O)OCc3cc(C(F)(F)F)cc(C(F)(F)F)c3)C[C@@H]12)c1ccc2[nH]nnc2c1 [BI 2545]  100.102%
37. CC(C)(O)c1cncc(-c2nc3ccc(F)cc3n2C2CC2)c1 [MSD-CYP11B2]  100.571%
38. CNC(=N)NCCC[C@H](NC(=O)[C@H](CC(C)C)NC(=O)NNC(=O)[C@H](Cc1ccccc1)NC(=O)[C@H](CO)NC(=O)[C@H](CC(N)=O)NC(=O)[C@@H](Cc1ccncc1)NC(=O)[C@H](N)Cc1ccc(O)cc1)C(=O)N[C@@H](Cc1ccccc1)C(N)=O [KISS1-305] (H-[dY][d4Pal]NSF[azaGly]L[Arg(Me)]F-NH2)  101.037%
39. COc1cc(C(=O)N(CCCc2ccccc2)Cc2ccc(CC(=O)O)cc2)cc(OC)c1C  101.167%
40. Nc1ncnc2c1ccn2[C@@H]1O[C@H]([C@H](O)c2ccccc2)[C@@H](O)[C@H]1O  101.429%
41. Cc1ccccc1Oc1cc(-n2c(=O)cc(C(F)(F)F)[nH]c2=O)c2ccccc2c1Cl [BAY-069]  101.552%
42. CCOc1ccc(C[C@H]2NC(=O)CCSSC[C@@H](C(=O)N3CCC[C@H]3C(=O)N[C@@H](CCCN)C(=O)NCC(N)=O)NC(=O)[C@H](CC(N)=O)NC(=O)[C@H]([C@@H](C)O)NC(=O)[C@H]([C@@H](C)CC)NC2=O)cc1 [ATOSIBAN] ([Mpa][dY](Et)ITNCP[Orn]G-NH2; disulfide 1-6)  101.789%
43. CNC(=O)c1cc(C(=O)NC2CC2)cn(Cc2ccccc2)c1=O [GSK620]  102.307%
44. Cc1ccc2c(c1CCC(=O)O)CC[C@@H](NS(=O)(=O)c1ccc(Cl)cc1)C2 [TERUTROBAN]  102.464%
45. CCCCC(=O)N(Cc1ccc(-c2ccccc2-c2nnn[nH]2)cc1)[C@H](C(=O)O)C(C)C  103.145%
46. Cl.Clc1ccc2nsnc2c1NC1=NCCN1 [TIZANIDINE HYDROCHLORIDE]  103.384%
47. O=C(O)Cc1ccccc1Nc1c(Cl)cccc1Cl [DICLOFENAC]  103.39%
48. Cc1cnc(-c2cc(Cl)ccc2F)cc1-n1c(=O)n(CC(N)=O)c2cnccc21 [TP-008]  103.993%
49. COC(c1ccccc1)(c1ccccc1)[C@H](Oc1nc(C)cc(C)n1)C(=O)O [AMBRISENTAN]  104.904%
